pIC50: −log10 of the molar value. “And” between values parts separate entries of the source, which are not always exact repeats. Equal values may be shown once. Where a name gives a salt, the structure may show the parent alone.

These results are taken from patent publication US7279575B2, “Pyrimidylpyrrole derivatives active as kinase inhibitors” (Pfizer Italia S.r.l., priority 2003, dated 2007).

Sequence of Cdc7/Dbf4 (O00311 whole entry, species assumed): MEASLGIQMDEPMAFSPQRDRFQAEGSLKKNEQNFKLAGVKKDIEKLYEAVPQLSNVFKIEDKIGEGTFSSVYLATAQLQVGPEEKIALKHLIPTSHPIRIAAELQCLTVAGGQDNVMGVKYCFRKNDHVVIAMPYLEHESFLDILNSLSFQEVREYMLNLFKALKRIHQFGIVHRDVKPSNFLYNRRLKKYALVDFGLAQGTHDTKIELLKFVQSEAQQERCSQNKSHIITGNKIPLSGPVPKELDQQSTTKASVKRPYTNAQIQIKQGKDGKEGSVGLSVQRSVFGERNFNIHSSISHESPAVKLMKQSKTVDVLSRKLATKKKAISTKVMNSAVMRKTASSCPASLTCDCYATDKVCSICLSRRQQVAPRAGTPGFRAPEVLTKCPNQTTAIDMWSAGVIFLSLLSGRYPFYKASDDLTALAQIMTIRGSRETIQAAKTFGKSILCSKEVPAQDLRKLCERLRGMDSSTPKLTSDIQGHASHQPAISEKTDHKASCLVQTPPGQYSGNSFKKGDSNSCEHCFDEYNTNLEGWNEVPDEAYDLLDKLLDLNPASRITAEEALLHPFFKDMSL
Sequence of Cdc7/Dbf4 (Q9UBU7 whole entry partner, species assumed): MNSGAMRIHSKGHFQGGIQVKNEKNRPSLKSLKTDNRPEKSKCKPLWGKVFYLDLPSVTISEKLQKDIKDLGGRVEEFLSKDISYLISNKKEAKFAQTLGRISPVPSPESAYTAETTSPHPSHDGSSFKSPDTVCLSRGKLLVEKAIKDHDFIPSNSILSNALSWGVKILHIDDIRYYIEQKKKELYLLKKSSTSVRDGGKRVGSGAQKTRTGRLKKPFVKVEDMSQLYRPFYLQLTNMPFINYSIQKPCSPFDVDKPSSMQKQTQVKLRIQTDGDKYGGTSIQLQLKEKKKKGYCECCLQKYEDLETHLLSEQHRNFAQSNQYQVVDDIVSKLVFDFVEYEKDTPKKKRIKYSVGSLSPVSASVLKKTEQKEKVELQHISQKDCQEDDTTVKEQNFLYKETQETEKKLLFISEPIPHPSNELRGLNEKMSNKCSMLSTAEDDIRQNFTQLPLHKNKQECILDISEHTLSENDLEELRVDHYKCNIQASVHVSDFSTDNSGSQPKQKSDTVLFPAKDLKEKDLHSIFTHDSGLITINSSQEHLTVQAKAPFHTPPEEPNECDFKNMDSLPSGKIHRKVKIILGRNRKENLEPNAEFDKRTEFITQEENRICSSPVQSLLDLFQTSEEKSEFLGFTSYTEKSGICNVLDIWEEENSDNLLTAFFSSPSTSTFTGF

The target of one test is cdk2/Cyclin A (Homo sapiens, UniProt P24941). Nature of the test: Inhibition assay of cdk2/Cyclin A activity (SPA, biotinylated histone H1). The class given is biochemical. The settings on record: histone H1 4 μM, ATP 10 μM, Cyclin A/CDK2 1.1 nM, 60 min at room temperature. Here is the method: The inhibiting activity of putative cdk/cyclin inhibitors and the potency of selected compounds may be determined through a method of assay based on the use of the SPA technology (Amersham Pharmacia Biotech).
The assay consists of the transfer of radioactivity labelled phosphate moiety by the kinase to a biotinylated substrate. The resulting 33P-labelled biotinylated product is allowed to bind to streptavidin-coated SPA beads (biotin capacity 130 pmol/mg), and light emitted was measured in a scintillation counter.
Inhibition Assay of cdk2/Cyclin A Activity
Kinase reaction: 4 μM in house biotinylated histone H1 (Sigma # H-5505) substrate, 10 μM ATP (0.1 microCi P^33γ-ATP), 1.1 nM Cyclin A/CDK2 complex, inhibitor in a final volume of 30 μl buffer (TRIS HCl 10 mM pH 7.5, MgCl2 10 mM, DTT 7.5 mM+0.2 mg/ml BSA) were added to each well of a 96 U bottom. After incubation for 60 min at room temperature, the reaction was stopped by addition of 100 μl PBS buffer containing 32 mM EDTA, 500 μM cold ATP, 0.1% Triton X100 and 10 mg/ml streptavidin coated SPA beads. After 20 min incubation, 110 μL of suspension were withdrawn and transferred into 96-well OPTIPLATEs containing 100 μl of 5M CsCl. After 4 hours, the plates were read for 2 min in a Packard TOP-Count radioactivity reader.
IC50 determination: inhibitors were tested at different concentrations ranging from 0.0015 to 10 μM. Experimental data were analyzed by the computer program GraphPad Prizm using the four parameter logistic equation: y=bottom+(top−bottom)/(1+10^((loglC50−x)*slope)) where x is the logarithm of the inhibitor concentration, y is the response; y starts at bottom and goes to top with a sigmoid shape.
The molecule `O=C1NCCc2[nH]c(-c3ccnc(NCc4ccco4)n3)cc21` [2-{2-[(2-furylmethyl)amino]pyrimidin-4-yl}-1,5,6,7-tetrahydro-4H-pyrrolo[3,2-c]pyridin-4-one] showed a pIC50 of 7.10.

Consider `O=C1NCCc2[nH]c(-c3ccnc(NCC4CCCCC4)n3)cc21` [2-{2-[(cyclohexylmethyl)amino]pyrimidin-4-yl}-1,5,6,7-tetrahydro-4H-pyrrolo[3,2-c]pyridin-4-one], for which the negative logarithm of the IC50 (pIC50) was 6.66.

In the case of `CC(C)CNc1nccc(-c2cc3c([nH]2)CCNC3=O)n1` [2-[2-(isobutylamino)pyrimidin-4-yl]-1,5,6,7-tetrahydro-4H-pyrrolo[3,2-c]pyridin-4-one], the pIC50 is 7.30.

As to `CC(=O)Nc1ccc(CNc2nccc(-c3cc4c([nH]3)CCNC4=O)n2)cc1` [N-[4-({[4-(4-oxo-4,5,6,7-tetrahydro-1H-pyrrolo[3,2-c]pyridin-2-yl)pyrimidin-2-yl]amino}methyl)phenyl]acetamide trifluoroacetate], the pIC50 is 7.70.

Take `CCCNc1nccc(-c2cc3c([nH]2)CCNC3=O)n1` [2-[2-(propylamino)pyrimidin-4-yl]-1,5,6,7-tetrahydro4H-pyrrolo[3,2-c]pyridin-4-one]: the pIC50 is 7.46.

For the next test, the target named is Cdc7/Dbf4 (Homo sapiens, UniProt O00311). In words: Inhibition assay of Cdc7/Dbf4 activity (Dowex resin capture, 33P-ATP, MCM2 substrate). The format is biochemical. The settings on record: MCM2 6 μM, ATP 2 μM, Cdc7/Dbf4 2 nM, 60 minutes at room temperature. As to the method:
The inhibiting activity of putative Cdc7 inhibitors and the potency of selected compounds is determined through a method of assay based on the use of Dowex resin capture technology. The assay consists of the transfer of radioactivity labeled phosphate moiety by the kinase to an acceptor substrate. The resulting 33P-labeled product is separated from unreacted tracer, transferred into a scintillation cocktail and light emitted is measured in a scintillation counter.
Inhibition Assay of Cdc7/Dbf4 Activity
The inhibition assay of Cdc7/Dbf4 activity is performed according to the following protocol. The MCM2 substrate is trans-phosphorylated by the Cdc7/Dbf4 complex in the presence of ATP traced with γ^33-ATP. The reaction is stopped by addition of Dowex resin in the presence of formic acid. Dowex resin particles capture unreacted γ^33-ATP and drag it to the bottom of the well while ^33p phosphorylated MCM2 substrate remains in solution. The supernatant is collected, transferred into Optiplate plates and the extent of substrate phosphorylation is evaluated by β counting.
The inhibition assay of Cdc7/Dbf4 activity was performed in 96 wells plate according to the following protocol.
To each well of the plate were added: • 10 μl test compound (10 increasing concentrations in the nM to μM range to generate a dose-response curve). The solvent for test compounds contained 3% DMSO. (final concentration 1%) • 10 μl substrate MCM2 (6 μM final concentration), a mixture of cold ATP (2 μM final concentration) and radioactive ATP (1/5000 molar ratio with cold ATP). • 10 μl enzyme (Cdc7/Dbf4, 2 nM final concentration) that started the reaction. The buffer of the reaction consisted in 50 mM HEPES pH 7.9 containing 15 mM MgCl2, 2 mM DTT, 3 μM NaVO3, 2 mM glycerophosphate and 0.2 mg/ml BSA.
After incubation for 60 minutes at room temperature, the reaction was stopped by adding to each well 150 μl of Dowex resin in the presence of 150 mM formic acid. After another 60 min incubation, 50 μL of suspension were withdrawn and transferred into 96-well OPTIPLATEs containing 150 μl of MicroScint 40 (Packard); after 5-10 minutes shaking the plates were read for 1 min in a Packard TOP-Count radioactivity reader.
IC50 determination: inhibitors were tested at different concentrations ranging from 0.0005 to 10 μM. Experimental data were analyzed by the computer program Assay Explorer using the four parameter logistic equation: y=bottom+(top−bottom)/(1+10^((log|C50−x)*slope)) where x is the logarithm of the inhibitor concentration, y is the response; y starts at bottom and goes to top with a sigmoid shape.
Regarding `O=C1NCCc2[nH]c(-c3ccnc(NCc4ccco4)n3)cc21` [2-{2-[(2-furylmethyl)amino]pyrimidin-4-yl}-1,5,6,7-tetrahydro-4H-pyrrolo[3,2-c]pyridin-4-one], the pIC50 was 7.13 and 7.06.

Consider `O=C1NCCc2[nH]c(-c3ccncn3)cc21` [2-pyrimidin-4-yl-1,5,6,7-tetrahydro-4H-pyrrolo[3,2-c]pyridin-4-one hydrochloride], for which the pIC50 was 7.72.

In turn, `CC(C)CC1Cc2[nH]c(-c3ccnc(N)n3)cc2C(=O)N1` (stereo not shown) [2-(2-aminopyrimidin-4-yl)-6-isobutyl-1,5,6,7-tetrahydro-4H-pyrrolo[3,2-c]pyridin-4-one] showed a pIC50 of 8.40.

`O=C(Nc1nccc(-c2cc3c([nH]2)CCNC3=O)n1)c1ccccc1` [N-[4-(4-oxo-4,5,6,7-tetrahydro-1H-pyrrolo[3,2-c]pyridin-2-yl)pyrimidin-2-yl]benzamide]: the negative-log IC50 (pIC50) is 6.52.

Turning to `Nc1nccc(-c2cc3c([nH]2)CCNC3=O)n1` [2-(2-aminopyrimidin-4-yl)-1,5,6,7-tetrahydro-4H-pyrrolo[3,2-c]pyridin-4-one hydrochloride], the pIC50 is 7.96.

`O=C1NCC(c2ccccc2)c2[nH]c(-c3ncnc4[nH]cnc34)cc21` (stereo not shown) [7-phenyl-2-(9H-purin-6-yl)-1,5,6,7-tetrahydro-4H-pyrrolo[3,2-c]pyridin-4-one hydrochloride] showed a pIC50 of 7.05.

Regarding `O=C1NCCc2[nH]c(-c3ccnc(Nc4ccccc4)n3)cc21` [2-(2-phenylaminopyrimidin-4-yl)-1,5,6,7-tetrahydro-4H-pyrrolo[3,2-c]pyridin-4-one hydrochloride], the pIC50 is 8.15.

In turn, `CC1CNC(=O)c2cc(-c3ccnc(N)n3)[nH]c21` (single isomer, unassigned) [(7R or 7S)-2-(2-aminopyrimidin-4-yl)-7-methyl-1,5,6,7-tetrahydro-4H-pyrrolo[3,2-c]pyridin-4-one] showed a pIC50 of 8.30.

Turning to `Nc1nccc(-c2[nH]c3c(c2I)C(=O)NCC3)n1` [2-(2-aminopyrimidin-4-yl)-3-iodo-1,5,6,7-tetrahydro-4H-pyrrolo[3,2-c]pyridin-4-one], the negative-log IC50 (pIC50) is 8.40.

Turning to `CC(C)C1Cc2[nH]c(-c3ccnc(N)n3)cc2C(=O)N1` (stereo not shown) [2-(2-aminopyrimidin-4-yl)-6-isopropyl-1,5,6,7-tetrahydro-4H-pyrrolo[3,2-c]pyridin-4-one], the pIC50 is 8.05.

Molecule `CC1(C)Cc2[nH]c(-c3ccnc(N)n3)cc2C(=O)N1` [2-(2-aminopyrimidin-4-yl)-6,6-dimethyl-1,5,6,7-tetrahydro-4H-pyrrolo[3,2-c]pyridin-4-one hydrochloride] showed a pIC50 of 7.49.

For `O=C1NCCc2[nH]c(-c3ccnc(NCc4ccccc4)n3)cc21` [2-[2-(benzylamino)pyrimidin-4-yl]-1,5,6,7-tetrahydro-4H-pyrrolo[3,2-c]pyridin-4-one], the pIC50 was 6.57.

As for `O=C1NCC(c2ccccc2)c2[nH]c(-c3ccncn3)cc21` (stereo not shown) [7-phenyl-2-pyrimidin-4-yl-1,5,6,7-tetrahydro-4H-pyrrolo[3,2-c]pyridin-4-one hydrochloride], the pIC50 was 7.49.

Regarding `Nc1nccc(-c2cc3c([nH]2)C(c2ccccc2)CNC3=O)n1` (stereo not shown) [2-(2-aminopyrimidin-4-yl)-7-phenyl-1,5,6,7-tetrahydro-4H-pyrrolo[3,2-c]pyridin-4-one hydrochloride], the pIC50 was 7.82.

`CC1(C)CNC(=O)c2cc(-c3ccnc(N)n3)[nH]c21` [2-(2-aminopyrimidin-4-yl)-7,7-dimethyl-1,5,6,7-tetrahydro-4H-pyrrolo[3,2-c]pyridin-4-one]: the negative-log IC50 (pIC50) is 8.70.

Regarding `CCC1(CC)CNC(=O)c2cc(-c3ccnc(N)n3)[nH]c21` [2-(2-aminopyrimidin-4-yl)-7,7-diethyl-1,5,6,7-tetrahydro-4H-pyrrolo[3,2-c]pyridin-4-one], the negative logarithm of the IC50 (pIC50) is 8.15.

In turn, `CC1Cc2[nH]c(-c3ccnc(N)n3)cc2C(=O)N1` (stereo not shown) [2-(2-aminopyrimidin-4-yl)-6-methyl-1,5,6,7-tetrahydro-4H-pyrrolo[3,2-c]pyridin-4-one] had a pIC50 of 7.59.

On to `O=C1NCCc2[nH]c(-c3ncnc4[nH]cnc34)cc21` [2-(9H-purin-6-yl)-1,5,6,7-tetrahydro-4H-pyrrolo[3,2-c]pyridin-4-one hydrochloride], for which the pIC50 is 6.70.

For the molecule `O=C1NCCc2[nH]c(-c3ccnc(NCC4CCCCC4)n3)cc21` [2-{2-[(cyclohexylmethyl)amino]pyrimidin-4-yl}-1,5,6,7-tetrahydro-4H-pyrrolo[3,2-c]pyridin-4-one], the pIC50 was 6.17.

For the molecule `CC(C)C1CNC(=O)c2cc(-c3ccnc(N)n3)[nH]c21` (stereo not shown) [2-(2-aminopyrimidin-4-yl)-7-isopropyl-1,5,6,7-tetrahydro-4H-pyrrolo[3,2-c]pyridin-4-one], the pIC50 was 8.10.

`CCOC(=O)Nc1nccc(-c2cc3c([nH]2)CCNC3=O)n1` [ethyl 4-(4-oxo-4,5,6,7-tetrahydro-1H-pyrrolo[3,2-c]pyridin-2-yl)pyrimidin-2-ylcarbamate] gave a pIC50 of 7.10.

`O=C1NCC(c2ccccc2)c2[nH]c(-c3ccnc(Nc4ccccc4)n3)cc21` (stereo not shown) [2-(2-anilinopyrimidin-4-yl)-7-phenyl-1,5,6,7-tetrahydro-4H-pyrrolo[3,2-c]pyridin-4-one hydrochloride] showed a pIC50 of 7.54.

`CC(=O)Nc1ccc(CNc2nccc(-c3cc4c([nH]3)CCNC4=O)n2)cc1` [N-[4-({[4-(4-oxo-4,5,6,7-tetrahydro-1H-pyrrolo[3,2-c]pyridin-2-yl)pyrimidin-2-yl]amino}methyl)phenyl]acetamide trifluoroacetate] had a pIC50 of 6.52.

As for `CC1CNC(=O)c2cc(-c3ccnc(N)n3)[nH]c21` (racemic) [2-(2-aminopyrimidin-4-yl)-7-methyl-1,5,6,7-tetrahydro-4H-pyrrolo[3,2-c]pyridin-4-one], the pIC50 was 8.10.

For `CC1CNC(=O)c2cc(-c3ccnc(N)n3)[nH]c21` (single isomer, unassigned) [(7R or 7S)-2-(2-aminopyrimidin-4-yl)-7-methyl-1,5,6,7-tetrahydro-4H-pyrrolo[3,2-c]pyridin-4-on], the negative-log IC50 (pIC50) was 8.40.

As to `CCCNc1nccc(-c2cc3c([nH]2)CCNC3=O)n1` [2-[2-(propylamino)pyrimidin-4-yl]-1,5,6,7-tetrahydro4H-pyrrolo[3,2-c]pyridin-4-one], the pIC50 was 6.51.

The pIC50 is the IC50 on a negative log10 scale, so that one unit is a factor of ten. Lower therefore signals a high IC50.
